Measurements reported in patent US8129355B2, “Ketone ligands for modulating the expression of exogenous genes via an ecdysone receptor complex” (priority 2002, dated 2012).

Key:
[1] = biological target: T1, GAL4 DBD (1-147)-CfEcR(DEF)/VP16AD-βRXREF-LmUSPEF (Choristoneura fumiferana, UniProt O77240); test: 27-63 assay: luciferase reporter gene expression in stable CHO cell clone 27-63; settings: for 27-63 Rel Max FI: maximum fold induction at any concentration relative to that of GS-E ligand; for CC50: read-out: 27-63 LC50, average, dose response, three-parameter logistic model; for Fold Induction Average, 27-63 Assay (33 μM): single dose 33 μM, RLU ligand treated / RLU DMSO treated cells
T1 sequence (O77240 191-513): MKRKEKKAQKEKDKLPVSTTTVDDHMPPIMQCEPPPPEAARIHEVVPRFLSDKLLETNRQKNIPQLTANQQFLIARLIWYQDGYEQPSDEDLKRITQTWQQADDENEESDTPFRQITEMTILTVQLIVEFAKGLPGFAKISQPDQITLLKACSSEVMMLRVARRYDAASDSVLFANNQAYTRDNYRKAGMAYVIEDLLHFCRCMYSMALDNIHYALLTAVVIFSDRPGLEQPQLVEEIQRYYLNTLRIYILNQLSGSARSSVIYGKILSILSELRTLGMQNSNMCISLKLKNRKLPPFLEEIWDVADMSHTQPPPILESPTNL
T1 sequence (P28702 296-455 partner limits assumed): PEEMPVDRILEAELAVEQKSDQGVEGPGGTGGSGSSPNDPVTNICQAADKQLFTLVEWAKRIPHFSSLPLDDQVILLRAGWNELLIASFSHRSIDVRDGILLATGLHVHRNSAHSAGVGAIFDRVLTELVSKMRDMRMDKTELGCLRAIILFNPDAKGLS
Excerpt: GAL4 DBD (1-147)-CfEcR(DEF)/VP16AD-βRXREF-LmUSPEF: The wild-type D, E, and F domains from spruce budworm Choristoneura fumiferana EcR (“CfEcR-DEF”; SEQ ID NO: 1) were fused to a GAL4 DNA binding domain (“Gal4 DBD1-147”; nucleotides 31 to 471 of SEQ ID NO: 2) and placed under the control of a phosphoglycerate kinase promoter (“PGK”; SEQ ID NO: 3). Helices 1 through 8 of the EF domains from Homo sapiens RXRβ and helices 9 through 12 of the EF domains of Locusta migratoria Ultraspiracle Protein (“HsRXRβ-EF-LmUSP-EF”; SEQ ID NO: 4) were fused to the transactivation domain from VP16 (“VP16AD”; SEQ ID NO: 5) and placed under the control of an elongation factor-1α promoter (“EF-1α”; SEQ ID NO: 6). Five consensus GAL4 response element binding sites (“5XGAL4RE”; comprising 5 copies of a GAL4RE comprising SEQ ID NO: 7) were fused to a synthetic TATA minimal promoter (SEQ ID NO: 8) and placed upstream of the luciferase reporter gene (SEQ ID NO: 9).
CHO cells were transiently transfected with transcription cassettes for GAL4 DBD (1-147) CfEcR(DEF) and for VP16AD βRXREF-LmUSPEF controlled by ubiquitously active cellular promoters (PGK and EF-1α, respectively) on a single plasmid. Stably transfected cells were selected by Zeocin resistance. Individually isolated CHO cell clones were transiently transfected with a GAL4 RE-luciferase reporter (pFR Luc). 27-63 clone was selected using Hygromycin.
Cells were trypsinized and diluted to a concentration of 2.5×10^4 cells mL. 100 μL of cell suspension was placed in each well of a 96 well plate and incubated at 37° C. under 5% CO2 for 24 h. Ligand stock solutions were prepared in DMSO and diluted 300 fold for all treatments. Dose response testing consisted of 8 concentrations ranging from 33 μM to 0.01 μM.
Luciferase reporter gene expression was measured 48 h after cell treatment using Bright-Glo™ Luciferase Assay System from Promega (E2650). Luminescence was detected at room temperature using a Dynex MLX microtiter plate luminometer.
Fold inductions were calculated from single dose testing by dividing relative light units (RLU) in ligand treated cells by RLU in DMSO treated cells. BC50s were calculated from dose response data using a three-parameter logistic model.

[2] = biological target: T2, GAL4 DBD-CfEcR(DEF)/VP16AD-MmRXRE (Choristoneura fumiferana, UniProt O77240); test: cell-based
T2 sequence (O77240 1-513): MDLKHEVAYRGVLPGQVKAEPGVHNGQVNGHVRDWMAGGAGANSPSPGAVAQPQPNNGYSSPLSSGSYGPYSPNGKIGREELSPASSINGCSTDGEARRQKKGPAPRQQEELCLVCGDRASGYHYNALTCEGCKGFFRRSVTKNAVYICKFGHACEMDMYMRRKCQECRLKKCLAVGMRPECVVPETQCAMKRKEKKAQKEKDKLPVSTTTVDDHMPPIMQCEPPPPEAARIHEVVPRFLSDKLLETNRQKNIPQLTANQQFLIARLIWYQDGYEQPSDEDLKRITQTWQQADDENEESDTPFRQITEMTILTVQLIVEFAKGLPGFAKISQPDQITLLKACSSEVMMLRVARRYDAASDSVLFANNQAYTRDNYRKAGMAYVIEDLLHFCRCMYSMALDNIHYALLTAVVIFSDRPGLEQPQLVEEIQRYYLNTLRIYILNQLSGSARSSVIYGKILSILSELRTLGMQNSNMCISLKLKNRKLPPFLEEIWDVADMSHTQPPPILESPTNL
Method in brief: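 Stable CHO clone 13B3 expressing GAL4 DBD-CfEcR(DEF) and VP16AD-mouse RXR(DE) with GAL4 RE-luciferase reporter. Ligands tested at 8 concentrations, 33–0.01 μM; luciferase read 48 h after treatment. Fold induction versus DMSO; BC50 from three-parameter logistic fit.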

[3] = biological target: T3, Gal4 DBD/AaEcR (DEF) with VP16-βRXR-E (Aedes aegypti, UniProt P49880); test: cell-based; type: cell-based; settings: for Fold Induction Average, AA_3T3 Assay (33 μM): single dose 33 μM, RLU ligand treated / RLU DMSO treated cells
T3 construct: The wildtype D, E, and F domains from mosquito Aedes aegypti EcR (“AaEcR-DEF”); expressed in transfected cells; host or cells: 3T3 cells, transient transfection (Superfect)
T3 sequence (P28704 286-520 A311G/G315S/G445S/I449V): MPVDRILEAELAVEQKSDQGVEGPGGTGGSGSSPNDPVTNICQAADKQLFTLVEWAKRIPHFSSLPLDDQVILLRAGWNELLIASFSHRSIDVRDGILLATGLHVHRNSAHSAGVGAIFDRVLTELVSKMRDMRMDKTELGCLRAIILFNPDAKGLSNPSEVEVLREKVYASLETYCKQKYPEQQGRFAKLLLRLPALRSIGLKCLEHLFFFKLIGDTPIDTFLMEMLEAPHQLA
T3 sequence (P49880 405-776): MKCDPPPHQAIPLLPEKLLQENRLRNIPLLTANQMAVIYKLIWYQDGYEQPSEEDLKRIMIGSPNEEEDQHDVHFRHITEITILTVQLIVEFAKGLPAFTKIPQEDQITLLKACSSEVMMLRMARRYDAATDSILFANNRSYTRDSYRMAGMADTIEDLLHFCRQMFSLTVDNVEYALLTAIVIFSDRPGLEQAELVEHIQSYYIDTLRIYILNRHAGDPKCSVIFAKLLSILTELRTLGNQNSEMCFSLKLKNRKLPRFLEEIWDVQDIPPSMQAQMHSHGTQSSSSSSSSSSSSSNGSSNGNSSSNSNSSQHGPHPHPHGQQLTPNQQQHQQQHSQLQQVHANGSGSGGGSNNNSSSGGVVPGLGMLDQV
Description: 3T3 cells were trypsinized and plated at 2.5×10^3 cells/well on a 96-well plate. After incubation for 24 h at 37° C. under 5% CO2, cells were transfected with the Gal4 DBD/AaEcR (DEF) gene expression cassette and the reporter plasmid, pFRLuc, containing a 5XGAL4 response element and the firefly luciferase gene in serum free media using Superfect (Qiagen). After transfection for 4 h at 37° C., the cells were treated with ligand in serum media. […] Single dose testing was performed at 33 μM.

[4] = biological target: T4, Bombyx mori EcR (VP16 fusion, switch construct CVBE) with 6XEcRE LacZ reporter (Bombyx mori, UniProt P49881); test: Z3 assay: β-galactosidase (LacZ) reporter gene fold induction in stably transformed human 293 kidney cells (clone Z3); type: cell-based; settings: for CC50: average, dose response, three-parameter logistic model, read-out: Z3 LC50; for Z3 Rel Max FI: maximum fold induction at any concentration relative to that of GS-E ligand; for Fold Induction Average, Z3 Assay (33 μM): single dose 33 μM, ligand treated / DMSO treated cells
T4 construct: expressed in transfected cells; host or cells: Human 293 kidney (HEK-293) cells, retrovirally infected, clone Z3
T4 sequence (P49881 86-606 limits assumed): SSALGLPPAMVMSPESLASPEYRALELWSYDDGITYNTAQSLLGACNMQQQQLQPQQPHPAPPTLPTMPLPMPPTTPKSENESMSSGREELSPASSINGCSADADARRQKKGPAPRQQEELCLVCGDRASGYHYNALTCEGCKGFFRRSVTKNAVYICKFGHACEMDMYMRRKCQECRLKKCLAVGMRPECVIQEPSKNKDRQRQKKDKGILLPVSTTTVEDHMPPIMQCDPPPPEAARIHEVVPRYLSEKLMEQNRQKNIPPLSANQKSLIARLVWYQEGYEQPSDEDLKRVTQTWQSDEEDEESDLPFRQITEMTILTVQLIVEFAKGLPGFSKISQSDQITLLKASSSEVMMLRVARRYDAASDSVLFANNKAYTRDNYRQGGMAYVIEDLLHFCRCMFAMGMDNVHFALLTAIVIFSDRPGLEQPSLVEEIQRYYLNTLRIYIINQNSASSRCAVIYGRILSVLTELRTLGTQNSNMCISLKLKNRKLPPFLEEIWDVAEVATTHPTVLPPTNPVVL
T4 sequence (P19793 1-462 partner): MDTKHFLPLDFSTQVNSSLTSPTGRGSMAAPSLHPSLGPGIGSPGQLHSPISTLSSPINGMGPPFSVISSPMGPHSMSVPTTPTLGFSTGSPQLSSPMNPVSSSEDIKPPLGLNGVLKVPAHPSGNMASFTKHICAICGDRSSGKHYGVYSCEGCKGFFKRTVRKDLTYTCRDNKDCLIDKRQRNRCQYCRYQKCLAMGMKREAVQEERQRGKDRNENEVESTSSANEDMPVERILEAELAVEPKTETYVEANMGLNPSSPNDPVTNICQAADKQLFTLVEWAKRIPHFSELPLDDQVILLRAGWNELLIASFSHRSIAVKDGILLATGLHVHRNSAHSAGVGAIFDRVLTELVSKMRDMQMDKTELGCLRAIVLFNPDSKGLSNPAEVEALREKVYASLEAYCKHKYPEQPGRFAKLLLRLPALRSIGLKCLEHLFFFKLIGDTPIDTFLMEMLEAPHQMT
Method in brief: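 β-Galactosidase read 48 h after dosing by bioluminescent assay; ligand added at 33 μM with DMSO held at 0.03%. The cells are stable 293 clone Z3, expressing a CMV-driven VP16 fusion of Bombyx mori EcR residues 26-546 plus six EcRE copies upstream of lacZ.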

[5] = maximum fold induction at any concentration relative to that of GS-E ligand

| SMILES | 27-63 Rel Max FI [1] | CC50 [1] [µM] | CC50 [4] [µM] | Z3 Rel Max FI [4] | Fold Induction Average, Z3 Assay (33 μM) [4] | Fold Induction Average, 27-63 Assay (33 μM) [1] | further results |
| --- | --- | --- | --- | --- | --- | --- | --- |
| COc1cccc(C(=O)NC(C)(C(=O)c2ccc(F)c(C)c2)C(C)C)c1C (stereo not shown) [Example 56] | 0.06 | > 33 | – | – | – | – | EC50 [2]: > 33 µM; 13B3 Rel Max FI [2, 5]: 0.00 |
| Cc1cc(C)cc(C(=O)C2(NC(=O)c3ccccc3C)CCCC2)c1 [Example 89] | 0.07 | > 33 | – | – | – | – | LC50 (half-maximal ligand concentration for reporter induction) ([3]; average, dose response 33 μM to 0.01 μM, three-parameter logistic model, read-out: AA_3T3 LC50): > 33 µM; AA_3T3 Rel Max FI [3, 5]: 0.00; Fold Induction Average, AA_3T3 Assay (33 μM) [3]: 78 |
| Cc1cc(C)cc(C(=O)C2(NC(=O)c3ccc4c(c3)OCCO4)CCCCC2)c1 [Example 82] | 0.84 | 1.78 | 1.99 | 0.79 | – | – | – |
| CCOC(=O)C(=O)N1CCC(NC(=O)c2cccc(OC)c2C)(C(=O)c2cc(C)cc(C)c2)CC1 [Example 150] | – | – | – | – | 3 | 1 | – |
| CCOC(=O)CN1CCC(NC(=O)c2cccc(OC)c2C)(C(=O)c2cc(C)cc(C)c2)CC1 [Example 152] | – | – | – | – | 6 | 3 | – |
| COc1cccc(C(=O)NC2(C(=O)c3cc(C)cc(C)c3)CCCN(C(C)=O)C2)c1C (racemic) [Example 153] | – | – | – | – | 3 | 1 | – |
| Cc1ccccc1C(=O)NC1(C(=O)c2ccccc2)CCCC1 [Example 140] | 0.00 | > 33 | > 33 | 0.00 | – | – | – |
| Cc1cc(C)cc(C(=O)C2(NC(=O)c3ccc4c(c3)COCO4)CCCC2)c1 [Example 87] | 0.53 | 18.7 | 9.46 | 0.17 | – | – | – |
| COc1cccc(C(=O)NC(C)(C(=O)c2cc(C)cc(C)c2)c2ccc(F)cc2)c1C (stereo not shown) [Example 73] | – | – | – | – | 4 | – | Fold Induction Average, AA_3T3 Assay (33 μM) [3]: 1 |
| CCC(=O)C1(NC(=O)c2ccccc2C)CCCC1 [Example 132] | – | – | – | – | – | – | Fold Induction Average, AA_3T3 Assay (33 μM) [3]: 1 |
| Cc1cc(C)cc(C(=O)C2(NC(=O)c3ccc4c(c3C)OCO4)CCCC2)c1 [Example 85] | 0.94 | 3.86 | 4.76 | 0.67 | – | – | – |
| O=C(NC1(C(=O)c2ccccc2)CCCC1)c1ccc2c(c1)OCO2 [Example 142] | 0.00 | > 33 | > 33 | 0.00 | – | – | – |
| COc1cccc(C(=O)NC2(C(=O)c3cc(C)cc(C)c3)CCN(C(=O)OC(C)C)CC2)c1C [Example 158] | – | – | – | – | 4 | – | Fold Induction Average, AA_3T3 Assay (33 μM) [3]: 1 |
| CCNC(=O)N1CCCC(NC(=O)c2cccc(OC)c2C)(C(=O)c2cc(C)cc(C)c2)C1 (racemic) [Example 160] | – | – | – | – | 1 | 1 | – |
| COc1cccc(C(=O)NC2(C(=O)c3cc(C)cc(C)c3)CCCN(S(C)(=O)=O)C2)c1C (racemic) [Example 155] | – | – | – | – | 4 | 2 | – |
| CCc1c(C(=O)NC2(C(=O)c3cc(C)cc(C)c3)CCCC2)ccc2c1OCCO2 [Example 84] | 0.82 | 1.02 | 1.59 | 0.91 | – | – | – |
| Cc1cc(C)cc(C(=O)C2(NC(=O)c3ccc4c(c3)COCO4)CCCCC2)c1 [Example 83] | 0.70 | 7.06 | 6.15 | 0.41 | – | – | – |
| COc1cccc(C(=O)NC2(C(=O)c3cc(C)cc(C)c3)CCCN(C(=O)OC(C)(C)C)C2)c1C (racemic) [Example 146] | – | – | – | – | 1 | 1 | – |
| CCC(=O)C(C)(C)NC(=O)c1ccccc1C [Example 124] | – | – | – | – | – | – | Fold Induction Average, AA_3T3 Assay (33 μM) [3]: 2 |
| CCC(=O)C(C)(C)NC(=O)c1ccc(CC)cc1 [Example 125] | – | – | – | – | – | – | Fold Induction Average, AA_3T3 Assay (33 μM) [3]: 1 |
| COc1cccc(C(=O)NC2(C(=O)c3cc(C)cc(C)c3)CCN(CC#N)CC2)c1C [Example 159] | – | – | – | – | 2 | 1 | – |
